{"source": "patent US8431715B2", "about": "“Thiazole compound (as PPARδ) ligand and pharmaceutical, cosmetic and health food comprised thereof” (Seoul National University Industry Foundation, priority 2007, dated 2013)", "type_in_all_cases": "in vivo", "key": {"[1]": {"system": "C57BL/6 mice", "experiment": "Reproductive toxicity test", "description": "Acute toxicity and reproductive toxicity tests were performed using mice to evaluate the toxicity of the compound of the present invention. The compound of formula 1 was orally administered to ICR mice at 6 weeks at the dosage of 50 mg/kg, 300 mg/kg and 2000 mg/kg, followed by observation on toxicity for 14 days. […] The result of reproductive toxicity test using C57BL/6 mice was also consistent with the above, which is no toxicity caused by the compound of formula 1 was observed. After oral-administration of the compound to the pregnant female mice, weight gain and growth speed of fetus were investigated."}, "[2]": {"system": "C57BL/6 mice", "experiment": "Obesity inhibitory effect, high-fat feed", "conditions": "10 mg/Kg/day oral, 35% fat feed for 35 days; vehicle 58.9%", "description": "An animal test using mice was performed to confirm the in vivo effect of the compound of the present invention. C57BL/6 (SLC Co.) mice at 14 weeks were used. To induce obesity, feeds containing 35% fat were given."}, "[3]": {"system": "mice", "experiment": "GTT (glucose tolerance test), diabetes improving effect", "conditions": "oral pre-treatment 78 days", "description": "GTT (glucose tolerance test) was performed to confirm the diabetes improving effect of the compound of the present invention. Glucose (1.5 g/Kg) was intra-abdominally administered to the mice pre-treated orally with samples for 78 days. Blood glucose was measured every hour. Fasting blood glucose was lower in the group treated with the compound of the present invention than in the group treated with vehicle or GW501516."}, "[4]": {"system": "C57BL/6 mice", "experiment": "Hyperlipidemia improving effect, blood HDL level", "conditions": "10 mg/kg/day oral, high fat feeds, 6 weeks, serum", "description": "In vivo animal test using C57BL/6 (SLC Co.) mice at 6 weeks was performed to confirm the hyperlipidemia improving effect of the compound of the present invention. […] 6 weeks later, blood was taken from orbital veins. Serum was separated and blood HDL level was measured by biochemical method."}, "[5]": {"system": "mice", "experiment": "Muscle endurance test, treatment during pregnancy and/or lactation, treadmill", "description": "An animal test was performed to confirm muscle endurance strengthening and muscle function enhancing effect of the compound of the present invention. Most muscles are generated in the developmental stage. Thus, the compound of formula 1 (10 mg/Kg/day) were orally administered to pregnant mice in the period of either pregnancy or lactation or both pregnancy and lactation. […] Muscles were observed after removing skin. As a result, muscles of the treatment group were red, unlike the controlled one. ATPase staining and immunostaining were performed. As a result, type I muscle fiber was increased in the group treated with the compound of formula 1. The effect of the changes of the muscle fiber on the enhancement of muscle endurance and muscle function was investigated by using treadmill test. As a result, running time was much extended in the group treated with the compound of formula 1."}, "[6]": {"system": "C57BL/6 mice", "experiment": "Muscle endurance test in adults with exercise, treadmill", "conditions": "10 mg/kg oral, mice at 10 weeks, treadmill exercise 30 days", "description": "Particularly, the compound of formula 1 was orally administered to C57BL/6 mice at 10 weeks at the concentration of 10 mg/kg, during which the mice were forced to exercise. The exercise was performed with treadmill for […] once a day for 30 days, precisely at the speed of 2 meter/min for the first 5 minutes, at 5 meter/min for 5 minutes, at 8 meter/min for 5 minutes and at 20 meter/min for the last 5 minutes. At the finish, muscle endurance and muscle function enhancing effect was tested by using treadmill. As a result, the time (1.5 fold) and distance (1.6 fold) of exercise were all increased in the group treated with the compound of the present invention, when compared with the control."}, "[7]": {"system": "C57BL/6 mice", "experiment": "Morris water maze test, LPS brain disease animal model", "description": "The therapeutic effect of the compound of the present invention on dementia and Parkinson's disease based on the memory improving effect thereof was investigated using brain disease animal model (C57BL/6 mice at 10 weeks). First, LPS was injected into the mouse brain to construct brain disease animal model. The mice were divided into four groups according to the administration and exercise. The exercise was performed with treadmill at the speed of 2 meter/min for the first 5 minutes, at 5 meter/min for 5 minutes, at 8 meter/min for 5 minutes and at 20 meter/min for the last 5 minutes. At the finish, Morris water maze test was performed. As a result, the therapeutic effect of the compound of formula 1 of the present invention on dementia and Parkinson's disease via memory enhancement by the compound and exercise was confirmed in the brain disease animal model."}, "[8]": {"conditions": "10 mg/Kg/day oral to pregnant mice"}, "[9]": {"conditions": "10 mg/Kg/day oral to pregnant mice, pregnancy"}, "[10]": {"conditions": "10 mg/Kg/day oral, Pregnancy + lactation"}}}
{"smiles": "Cc1cc(S[C@H](Cc2ccccc2)c2sc(-c3ccc(C(F)(F)F)cc3)nc2C)ccc1OCC(=O)O", "note": "(racemic) [formula 1]", "values": [{"measurement": "bone development and disease related matters", "setting": "[1]; mouse, in vivo, po", "value": "no changes"}, {"measurement": "weight gain and growth speed of fetus", "setting": "[1]; mouse, in vivo, po", "value": "no significant difference"}, {"measurement": "reproductive toxicity", "setting": "[1]; oral, pregnant female mice", "value": "no toxicity"}, {"measurement": "weight increase", "setting": "[2]", "value": 23.1, "unit": "%"}, {"measurement": "time of rapid blood glucose decrease", "setting": "[3]; glucose 1.5 g/Kg intra-abdominal", "value": "20 to 40", "unit": "min"}, {"measurement": "fasting blood glucose", "setting": "[3]; compared with vehicle or GW501516 group", "value": "lower"}, {"measurement": "HDL level increase compared with the control", "setting": "[4]", "value": 44.6, "unit": "%"}, {"measurement": "muscle colour after removing skin", "setting": "[5]; [8]", "value": "red"}, {"measurement": "weight gain and growth rate of fetuses versus control", "setting": "[5]; [8]", "value": "not much different"}, {"measurement": "Increasing rate (treatment group/control group), length", "setting": "[5]; [9]", "value": 2.4, "unit": "times"}, {"measurement": "Increasing rate (treatment group/control group), time", "setting": "[5]; [9]", "value": 2.3, "unit": "times"}, {"measurement": "Increasing rate (treatment group/control group), length", "setting": "[5]; [10]", "value": 3.0, "unit": "times"}, {"measurement": "Increasing rate (treatment group/control group), time", "setting": "[5]; [10]", "value": 2.9, "unit": "times"}, {"measurement": "Increasing rate (treatment group/control group), length", "setting": "[5]; 10 mg/Kg/day oral, lactation", "value": 2.2, "unit": "times"}, {"measurement": "Increasing rate (treatment group/control group), time", "setting": "[5]; 10 mg/Kg/day oral, lactation", "value": 2.1, "unit": "times"}, {"measurement": "type I muscle fiber", "setting": "[5]; ATPase staining and immunostaining", "value": "increased"}, {"measurement": "running time", "setting": "[5]; treadmill test", "value": "much extended"}, {"measurement": "distance of exercise compared with the control", "setting": "[6]", "value": 1.6, "unit": "fold"}, {"measurement": "time of exercise compared with the control", "setting": "[6]", "value": 1.5, "unit": "fold"}, {"measurement": "Results of water maze test", "setting": "[7]; Exercise (O), control 29 seconds", "value": 13, "unit": "s"}, {"measurement": "Results of water maze test", "setting": "[7]; Exercise (X), control 36 seconds", "value": 25, "unit": "s"}]}
